Test results from paper PMC6337485, “Olive Biophenols Reduces Alzheimer’s Pathology in SH-SY5Y Cells and APPswe Mice” (International Journal of Molecular Sciences, 2018).
Like-named read-outs stand apart in the source and are kept apart here.

What was measured:
Aβ42 fibrils [1] = molecular target: T1, Aβ42 fibrils (Homo sapiens, UniProt P05067); assay: Thioflavin-T (ThT) fluorometric assay, Aβ42 fibril inhibition; type: biochemical; conditions: for Thioflavin-T Assay % Inhibition: highest concentration, 1000 µM standard
T1 sequence (P05067 672-713 limits assumed): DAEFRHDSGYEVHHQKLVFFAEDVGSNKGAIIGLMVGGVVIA

SH-SY5Y cells [2] = system: SH-SY5Y cells
SH-SY5Y cells [3] = assay: Aβ42 induced SH-SY5Y cells toxicity and olive biophenols treatment (MTT viability); conditions: 1000 µM standard, 24 h pre-incubation, then 25 µM Aβ42 for 24 h
SH-SY5Y cells [4] = system: SH-SY5Y cells; remark: listed apart in the source
Aβ42 fibrils [5] = molecular target: T1, Aβ42 fibrils; assay: Congo red binding assay, Aβ42 fibril inhibition; type: biochemical; conditions: for Congo-Red Assay % Inhibition: highest concentration, 1000 µM standard
Aβ42 fibrils [6] = molecular target: T1, Aβ42 fibrils; assay: Transmission electron microscope (TEM) imaging of Aβ42 fibrils with olive biophenols; type: biochemical; conditions: biophenol ≥200 µM, 20 µM Aβ42 fibrils, 24 h, 37 °C
Protocol: Ten µL aliquot of each sample was spotted onto a glow-discharged, carbon-coated formvar grid and incubated for 30 min. The droplet then was displaced with an equal volume of 2.5% glutaraldehyde (v/v) and incubated for an additional 5 min. Finally, the grid was stained with 10 μL of 3% 0.22 µm filtered uranyl acetate (v/v) twice, and the solution was gently wicked off using Whatman’s grade-1 qualitative filter paper and the grid was then air-dried. Samples were examined by using a Hitachi H7100FA TEM (Hitachi, Japan) at the Centre for Advanced Microscopy, Australian National University, Canberra. All the images were captured at a voltage of 125 kV and an instrumental magnification of 2000×.

BACE-1 enzyme = system: BACE-1 enzyme; parameters: method as in PMID 29772299; conditions: among olive biophenols; cited from earlier work
SH-SY5Y cells [7] = system: SH-SY5Y cells; parameters: method as in PMID 29109370; conditions: cited from earlier work
SH-SY5Y cells [8] = conditions: human, 1000 µM
SH-SY5Y cells [9] = conditions: human, 1000 µM; remark: listed apart in the source
[10] = standard biophenols 10–1000 µM, pre-formed Aβ42 fibril, 2 h, room temperature
[11] = 1000 µM standard, 24 h pre-incubation, then 25 µM Aβ42 and 200 µM copper for 24 h
[12] = 1000 µM standard, 24 h pre-incubation, then 25 µM Aβ42 and 200 µM L-DOPA for 24 h

Thioflavin-T Assay IC50 (Aβ42 fibrils [1]; [10])	IC50 (Aβ42 fibrils [1]; [10]) [µM]	IC50 (Aβ42 fibrils [5]; standard biophenols 10–1000 µM, pre-formed Aβ42 fibril, 2 h, room temperature, read-out: Congo-Red Assay IC50) [µM]	Compound	Aβ-Cu-SH-SY5Y Toxicity % Viability (SH-SY5Y cells [2]; [11]) [%]	Aβ-SH-SY5Y Toxicity % Viability (SH-SY5Y cells [3]) [%]	Aβ-L-DOPA-SH-SY5Y Toxicity % Viability (SH-SY5Y cells [4]; [12]) [%]	Congo-Red Assay IC50 (Aβ42 fibrils [5]; [10])	Thioflavin-T Assay % Inhibition (Aβ42 fibrils [1]) [%]	Congo-Red Assay % Inhibition (Aβ42 fibrils [5]) [%]	IC50 (Aβ42 fibrils [5]; read-out: Congo-Red Assay IC50) [µM]	IC50 (Aβ42 fibrils [1]) [µM]	Effect on formed Aβ42 fibrils (TEM) (Aβ42 fibrils [6])	BACE-1 enzyme inhibition (BACE-1 enzyme)	Protection of SH-SY5Y cells against Cu-induced toxicity (SH-SY5Y cells [7])	Aβ-Cu-SH-SY5Y Toxicity % Viability (SH-SY5Y cells [2]; human, SH-SY5Y neuroblastoma cells, 1000 µM) [%]	IC50 (Aβ42 fibrils [5]) [µM]	Aβ-Cu-SH-SY5Y Toxicity % Viability (SH-SY5Y cells [8]) [%]	Aβ-L-DOPA-SH-SY5Y Toxicity % Viability (SH-SY5Y cells [4]; human, 1000 µM) [%]	Aβ-SH-SY5Y Toxicity % Viability (SH-SY5Y cells [9]) [%]
unable to achieve IC50 value	–	–	O=C(O)/C=C/c1ccc(O)c(O)c1 [Caffeic acid (CA), Caffeic acid]	62 ± 0.93	62 ± 0.53	67 ± 0.43	unable to achieve IC50 value	–	–	–	–	–	–	–	–	–	–	–	–
unable to achieve IC50 value	–	–	OCCc1ccc(O)c(O)c1 [Hydroxytyrosol (HT), Hydroxytyrosol]	60 ± 0.84	60 ± 1.00	64 ± 1.02	–	45 ± 0.47	50 ± 0.4	97.8	–	–	–	–	–	–	–	–	–
–	15.4	14.4	CC(Cc1ccc(O)c(O)c1)C(C)Cc1ccc(O)c(O)c1 (stereo not shown) [Nordihroguaretic acid (NDGA), Nordihydroguaiaretic acid, reference compound]	–	–	–	–	70 ± 0.5	69 ± 0.4	–	–	–	–	–	–	–	–	–	–

Continued, compound first:

Compound	Thioflavin-T Assay IC50 (Aβ42 fibrils [1]; [10])	IC50 (Aβ42 fibrils [1]; [10]) [µM]	IC50 (Aβ42 fibrils [5]; standard biophenols 10–1000 µM, pre-formed Aβ42 fibril, 2 h, room temperature, read-out: Congo-Red Assay IC50) [µM]	Aβ-Cu-SH-SY5Y Toxicity % Viability (SH-SY5Y cells [2]; [11]) [%]	Aβ-SH-SY5Y Toxicity % Viability (SH-SY5Y cells [3]) [%]	Aβ-L-DOPA-SH-SY5Y Toxicity % Viability (SH-SY5Y cells [4]; [12]) [%]	Congo-Red Assay IC50 (Aβ42 fibrils [5]; [10])	Thioflavin-T Assay % Inhibition (Aβ42 fibrils [1]) [%]	Congo-Red Assay % Inhibition (Aβ42 fibrils [5]) [%]	IC50 (Aβ42 fibrils [5]; read-out: Congo-Red Assay IC50) [µM]	IC50 (Aβ42 fibrils [1]) [µM]	Effect on formed Aβ42 fibrils (TEM) (Aβ42 fibrils [6])	BACE-1 enzyme inhibition (BACE-1 enzyme)	Protection of SH-SY5Y cells against Cu-induced toxicity (SH-SY5Y cells [7])	Aβ-Cu-SH-SY5Y Toxicity % Viability (SH-SY5Y cells [2]; human, SH-SY5Y neuroblastoma cells, 1000 µM) [%]	IC50 (Aβ42 fibrils [5]) [µM]	Aβ-Cu-SH-SY5Y Toxicity % Viability (SH-SY5Y cells [8]) [%]	Aβ-L-DOPA-SH-SY5Y Toxicity % Viability (SH-SY5Y cells [4]; human, 1000 µM) [%]	Aβ-SH-SY5Y Toxicity % Viability (SH-SY5Y cells [9]) [%]
O=c1cc(-c2ccc(O)c(O)c2)oc2cc(O)cc(O)c12 [Luteolin (LU), Luteolin]	–	–	–	67 ± 0.52	65 ± 0.39	69 ± 0.87	–	64 ± 0.4	61 ± 0.33	46.3	36.9	–	–	–	–	–	–	–	–
C/C=C1/[C@H](O[C@@H]2O[C@H](CO)[C@@H](O)[C@H](O)[C@H]2O)OC=C(C(=O)OC)[C@H]1CC(=O)OCCc1ccc(O)c(O)c1 [Oleuropein (OL), Oleuropein]	–	–	–	76 ± 1.61	68 ± 0.69	74 ± 0.23	–	61 ± 0.33	65 ± 0.3	36.5	22.9	significant reduction in both the size and number of fibrils	strongest inhibitor	–	–	–	–	–	–
O=c1c(O)c(-c2ccc(O)c(O)c2)oc2cc(O)cc(O)c12 [Quercetin (QU), Quercetin]	–	–	–	–	–	–	–	57 ± 0.34	55 ± 0.71	–	45.9	moderate reduction in fibril formation	–	rescue SH-SY5Y cells	60 ± 0.52	73.8	–	–	–
C[C@@H]1O[C@@H](OC[C@H]2O[C@@H](Oc3c(-c4ccc(O)c(O)c4)oc4cc(O)cc(O)c4c3=O)[C@H](O)[C@@H](O)[C@@H]2O)[C@H](O)[C@H](O)[C@H]1O [Rutin (RU), Rutin]	unable to reach the IC50 concentration	–	–	54 ± 0.71	59 ± 0.59	57 ± 0.85	unable to achieve IC50 value	49 ± 0.25	48 ± 0.33	–	–	–	–	–	–	–	–	–	–
C[C@@H]1O[C@@H](O[C@@H]2[C@@H](O)[C@H](OCCc3ccc(O)c(O)c3)O[C@H](CO)[C@H]2OC(=O)/C=C/c2ccc(O)c(O)c2)[C@H](O)[C@H](O)[C@H]1O [Verbascoside (VB), Verbascoside]	–	–	–	–	–	–	–	61 ± 0.35	57 ± 0.51	59.6	22.6	–	strongest inhibitor	rescue SH-SY5Y cells	–	–	70 ± 0.48	69 ± 0.66	66 ± 1.11
